Consider one compound from patent publication US8142799B2, “High potency clinical anti-craving treatment and method of use” (priority 2001, dated 2012).

`N[C@@H](CCC(=O)N[C@@H](CS)C(=O)NCC(=O)O)C(=O)O` [L-glutathione]: the “time to PH breakdown” value (L-Glutathione at a PH value of roughly 7 in the amino-acid component) is given as “a few weeks”. Besides, the “PH above which L-glutathione itself breaks down” value (at compounding) is “above 7.2”.
